Test results published in PMC11053168, “Agonist-selective activation of individual G-proteins by muscarinic receptors” (Scientific Reports, 2024).
Like-named read-outs stand apart in the source and are kept apart here.

Legend:
M2 receptor = biological target: T1, M2 receptor (Homo sapiens, UniProt P08172); experiment: Agonist-stimulated GTPγ[35S] binding to Sf9 membranes expressing M2 receptor and individual Gαi/o; assay type: biochemical; parameters: host or cells: Sf9 insect cells, baculovirus (pFastBac1 / Bac-to-Bac); membranes; settings: for Activation of individual Gi/o Gα types: M2 with GαoA, GαoB, Gαi1, Gαi2, Gαi3; for Operational efficacy lower than the efficacy of CBC: at GαoA and GαoB; for Signalling bias among Gαi/o relative to CBC: RAi / bias factor, CBC reference
T1 sequence (P08172 1-466): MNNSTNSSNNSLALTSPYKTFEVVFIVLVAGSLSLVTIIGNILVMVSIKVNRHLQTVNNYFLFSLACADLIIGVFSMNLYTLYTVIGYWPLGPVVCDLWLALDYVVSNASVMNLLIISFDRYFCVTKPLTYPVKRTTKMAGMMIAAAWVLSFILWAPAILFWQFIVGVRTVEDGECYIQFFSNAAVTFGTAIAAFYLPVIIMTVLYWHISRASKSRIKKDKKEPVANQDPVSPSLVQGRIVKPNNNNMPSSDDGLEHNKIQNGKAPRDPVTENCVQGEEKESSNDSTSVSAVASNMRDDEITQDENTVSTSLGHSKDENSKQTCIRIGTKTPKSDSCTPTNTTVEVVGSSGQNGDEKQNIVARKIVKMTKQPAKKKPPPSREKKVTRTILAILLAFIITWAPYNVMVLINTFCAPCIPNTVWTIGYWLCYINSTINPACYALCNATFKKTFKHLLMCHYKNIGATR
Method: Baculoviral stocks for expression of M2 receptor and individual Gα-subunits of Gi/o G-proteins (GαoA, GαoB, Gαi1, Gαi2, Gαi3) in SF9 cells were generated according to Bac-to-Bac® baculovirus expression system—user guide (https://assets.thermofisher.com/TFS-Assets/LSG/manuals/MAN0000414_BactoBacExpressionSystem_UG.pdf). […] After 96 h at 27 °C, baculoviral viral particles released into the medium were harvested. After centrifugation at 500×g for 10 min to remove detached cells and cell debris, baculoviral stock P0 was ready for amplification. Suspension of Sf9 cells at density 2 × 10^6 cells per ml was infected by baculoviral stock P0 in ratio 1:1000 and after 72 h of growth (in a shaking incubator at 135 rpm and 27 °C) the amplified baculoviral stock P1 was harvested. The cell suspension was centrifugated at 500×g for 10 min to remove cells and cell debris and the supernatant containing a high level of baculoviral particles P1 was collected. FBS to the concentration of 0.5% was added and the stock was stored at 4 °C, protected from light for up to 6 months. For the quantification of baculoviral particles, a plaque assay was used.
Cells were grown in suspension culture in 250 ml Erlenmeyer flasks in Sf-900™ III serum-free medium in an aerated shaking incubator at 27 °C and 135 rpm. Cells were maintained at the density of 1–4 × 10^6 cells per ml. Sf9 cells at the density 2 × 10^6 were co-infected with baculoviral stock for the M2 receptor and a particular Gi/o Gα in the ratio (1:10). […] Infected cells were harvested by centrifugation 1000×g for 10 min. Cell pellets were kept at − 80 °C.
(§1) Membranes were prepared as described previously by Randakova et al.[33]. Cells harvested from twenty 100 mm petri dishes (CHO) or 30 ml of cell suspension (Sf9) were suspended in 20 ml of ice-cold incubation medium (100 mM NaCl, 20 mM Na-HEPES, 10 mM MgCl2, pH 7.4) supplemented with 10 mM EDTA and homogenized on ice by two 30‐s strokes using a Polytron homogenizer (Ultra-Turrax; Janke & Kunkel GmbH & Co. KG, IKA-Labortechnik, Staufen, Germany) with a 30 s pause between strokes. Cell homogenates were centrifuged for 5 min at 1000×g to remove whole cells and cell nuclei. The resulting supernatants were centrifuged for 30 min at 30,000×g. Pellets were suspended in a fresh incubation medium, incubated on ice for 30 min, and centrifuged again. The resulting membrane pellets were kept at − 80 °C until assayed within 10 weeks.
Agonist stimulated GTPγ[^35S]binding to membranes from Sf9 cells expressing the M2 receptors in a combination with α-subunit of given Gi/o type (GαoA, GαoB, Gαi1, Gαi2, Gαi3) was measured in 96-well plates in a final volume of 200 µl of incubation medium described above containing 500 pM of GTPγ[^35S] […] Nonspecific binding was determined in the presence of 1 µM nonlabelled GTPγS. Incubations were terminated and processed as described above. Parameters of functional response were calculated according to Eq. (3) after subtraction of non-specific binding.
The basal value of GTPγ[^35S] binding was determined in the absence of the agonist. After subtraction of non-specific binding determined in the presence of 10 μM nonlabelled GTPγS, GTPγ[^35S]binding was divided by the basal value and expressed as folds over basal. […] Then Eq. (3) was fitted to the data using GraphPad. Obtained EMAX and EC50 values were used to calculate RAi values using Eq. (7). To determine τ and KA of the functional responses system EMAX was determined as described earlier. Basal values were subtracted and functional responses were expressed as fractions of system EMAX. […] Obtained τ and KA values were used to calculate the bias factor according to Eq. (8), see below, for each experiment.
Equation (4) was fitted to data by the two-step procedure described earlier[61]

M2 muscarinic receptor = biological target: T2, M2 muscarinic receptor (Homo sapiens, UniProt P08172); experiment: [3H]NMS competition binding, membranes from CHO cells expressing M2
T2 construct: membranes
T2 sequence (P08172 1-466): T1 sequence (P08172 1-466)
Method: Cells were cultured as described previously by Randakova et al.[33]. […] The medium was supplemented with 5 mM butyrate for the last 24 h of culture to increase receptor expression. Cells were washed with (phosphate-buffered saline (PBS), mechanically harvested by scraper and centrifugated 1000 × g for 5 min. Cell pellets were kept at − 80 °C.
as §1
Non-specific binding was determined in the presence of 10 μM unlabelled atropine. Incubations were terminated by filtration through filtration plates multiscreen 96 well Harvest (Merck Millipore) using a Brandel cell harvester (Brandel, Gaithersburg, MD, USA). Filtration plates were dried in a microwave oven, and then 40 μl of liquid scintillator Rotiscint eco plus (Roth) was added. The filtration plates were counted in the Microbeta scintillation counter (PerkinElmer). […] The inhibition constant KI was calculated according to Eq. (2).
Inhibition constants KI were calculated according to Eq. (2).2 KI=IC50/1+D/KD where IC50 is calculated according to Eq.

Ki (M2 muscarinic receptor; M2, competition with [3H]NMS, mean ± SD, three experiments, read-out: Binding affinity, negative logarithm of Ki (converted)) [µM]	GTPγ[35S] binding signal (M2 receptor; M2 + Gi1)	GTPγ[35S] binding signal relative to the detection limit (M2 receptor; M2 + GoA)	SMILES	GTPγ[35S] binding signal at Gi1 as % of GoA (M2 receptor; M2 + Gi1 vs M2 + GoA) [%]	Activation of individual Gi/o Gα types (M2 receptor)	Ki (M2 muscarinic receptor) [µM]	Operational efficacy lower than the efficacy of CBC (M2 receptor)	Signalling bias among Gαi/o relative to CBC (M2 receptor; M2)	Bias GoA vs GoB (M2 receptor; M2, relative to carbachol)	Experimental binding affinity relative to JR-6 (M2 muscarinic receptor; M2 (Table 1))
–	–	–	C[N+](C)(C)CCOC(N)=O [CBC, carbachol, reference compound]	62	activated all Gi/o types	–	–	–	–	–
–	–	–	c1csc(C[N+]23CCC(CC2)CC3)c1 [JB-8A]	–	activated GαoA and GαoB only	3.24	20–30 ×	–	–	–
–	–	–	C[N+]1(Cc2cccs2)CCOCC1 [JB-12-2]	–	activated all Gi/o Gα	17.4	–	biased to GαoA	more than 5 fold	–
23.4	–	–	COC(=O)C1=CCCN(Cc2cccs2)C1 [JB-13-1]	–	activated all Gi/o Gα	–	–	biased to Gαi3	–	–
–	no signal	more than 20 fold	C[N+]1(Cc2cccs2)CC=CCC1 (stereo not drawn) [JR-6, 1-methyl-1-[(thiophen-2-yl)methyl]-1,2,3,6-tetra hydropyridin-1-ium]	–	activated GαoA and GαoB only	–	approx 10 ×	absolute selectivity to Gαo with a preference for GαoB	–	–
–	–	–	C[N+]1(Cc2ccc(Cl)s2)CC=CCC1 (stereo not drawn) [PN-152, 1-[(5-chlorothiophen-2-yl)methyl]-1-methyl-1,2,3,6-tetrahydropyridin-1-ium]	–	activated GαoA and GαoB only	–	~15 ×	absolute selectivity to Gαo with a preference for GαoB	–	ten-times higher
